Data as given in publication PMC4560162, “Discovery of small molecule inhibitors of xyloglucan endotransglucosylase (XET) activity by high-throughput screening” (Phytochemistry, 2015).
Entries after “also recorded” stand apart in the source; their conditions may differ. Like-named read-outs stand apart in the source and are kept apart here.

Tests used:
[1] = system: parsley XET activity; experiment: Radiochemical XET assay (soluble xyloglucan + [3H]XXXGol); format: biochemical; details: for effect on XET activity in radiochemical assays (as summarised in the discussion): free solution; for effect on XET activity, radiochemical re-screen of 206 compounds (mostly LATCA): LATCA approx. 25 μM, EDI approx. 200 μg/ml, listed in order of decreasing effectiveness; for effect on XET activity, first radiochemical re-screen of EDI hits: most xenobiotics at 200 μg/ml (≈200–800 μM); for inhibition of XET activity: additional LATCA compounds re-tested radiochemically at 200 μM
Procedure: The parsley enzyme concentration was held constant, and the xenobiotics were tested at 200, 160, 120, 80, 40, 20, 10 and 0 μg/ml (concentrations in the final reaction mixture). Other details were as above.
The riboflavin-free controls received the same DMSO concentration.

[2] = system: Petroselinum xyloglucan endotransglucosylase (XET) activity; experiment: Fluorescent dot-blot XET screen (cellulose-bound xyloglucan + XGO–SR on paper, in the dark); format: biochemical, parsley; details: for coagulation ('type c' effect) in dot-blot: EDI collection, 0.4 mg/ml in enzyme mixture
Procedure: For inhibitor screening, 53 new 96-well plates were set up with 50 μl of parsley enzyme extract per well, and 1 μl of DMSO-solubilised xenobiotic was added to each well, giving concentrations of 0.4 mg/ml (EDI collection, with exceptions noted in Table S2) or 50 μM (LATCA collection) and 2% v/v DMSO.
XET test-paper was prepared as before ([Fry, 1997]) and 112 × 75-mm sheets were attached to cellulose acetate overhead-projector sheets with ‘Spraymount’ adhesive. Each sheet was placed on a pre-cooled glass plate in a cold room at 4 °C.
For inhibitor screening (Fig. 2), 4 μl of a parsley enzyme/xenobiotic mixture was applied to each position on a sheet. Incubation at 20 °C for 2 h, washing, drying and photography were conducted essentially as above.

[3] = system: Zea cell-suspension cultures; experiment: Cell expansion (SCV, PCV) in Zea cell-suspension culture; format: cell-based, Zea mays; details: Zea, 4 d incubation
Procedure: Cell-suspension cultures of “Paul’s Scarlet” rose [a complex hybrid; genus Rosa; isolated in October 1957 from sections of young stem material; [Nickell and Tulecke, 1959]) and maize (Zea mays L., Black Mexican Sweetcorn, donated by Dr. I. Moore, Department of Botany, University of Edinburgh) were grown under constant dim illumination (10 μmol m^−2 s^−1) on an orbital shaker at 25 °C. Rose cells were maintained as described by [Chormova et al. (2014)] and maize cells as described by [Kerr and Fry (2003)].
Eight xenobiotics that inhibited XET activity were selected for biological testing. Mini-cultures [2 ml, 5% (v/v) SCV; transferred from a standard culture 7 d after sub-culturing] were incubated in 12-well tissue culture microplates with the lids closed loosely. Xenobiotics were added as concentrated stocks in DMSO (final DMSO concentration 2%), and incubation was continued aseptically under standard conditions of temperature, lighting and shaking. After 4 d, 1 kBq of [^14C]proline was added per mini-culture. A small volume of medium (50 μl) was sampled 2 and 4 h after [^14C]proline addition and assayed for remaining extracellular ^14C. The culture was brought up to 10 ml with water and the settled and packed cell volumes (SCV, PCV) were then measured ([Fry and Street, 1980]). Most of the culture medium was then removed and the cells were finally killed by addition of 0.5 ml of 6% SDS. After 0.5 h at 100 °C, a 100-μl aliquot of the centrifuged SDS-extract was dried onto Whatman No. 3 paper, which was then washed in 75% ethanol supplemented with 0.5% acetic acid, thus removing free [^14C]proline and its low-Mr metabolites if any; radioactivity remaining on the paper ([^14C]protein) was then assayed.

[4] = system: Zea cell-suspension cultures; experiment: Membrane function ([14C]proline uptake) in Zea culture; format: cell-based, Zea mays; details: 4 d after xenobiotic, higher tested concentration
[5] = soluble xyloglucan, laboratory light
[6] = EDI 0.4 mg/ml, LATCA 50 μM, 2 h, dark, cellulose-bound xyloglucan

## Cc1cc(C(=C2C=CC(=Nc3ccc(S(=O)(=O)O)cc3)C=C2)c2ccc(Nc3ccc(S(=O)(=O)O)cc3)cc2)cc(S(=O)(=O)O)c1N [aniline blue]
[1]; [5]
  effect on XET activity in radiochemical assays (as summarised in the discussion): inhibiting XET activity

## CCOc1ccc(Nc2ccc(C(=C3C=CC(=[N+](CC)Cc4cccc(S(=O)(=O)[O-])c4)C=C3)c3ccc(N(CC)Cc4cccc(S(=O)(=O)O)c4)cc3)cc2)cc1 [brilliant blue R]
[1]
  effect on XET activity, radiochemical re-screen of 206 compounds (mostly LATCA): inhibition

## O=C(O)[C@H](O)[C@@H](O)[C@H](O)CO [xylonic acid]
[2]; [6]
  effect on XET activity in dot-blot (inhibition / promotion): promotion

## O=C(O)[C@H](O)[C@@H](O)[C@H](O[C@@H]1O[C@H](CO)[C@H](O)[C@H](O)[C@H]1O)[C@H](O)CO [lactobionic acid]
[2]; [6]
  effect on XET activity in dot-blot (inhibition / promotion): promotion; also recorded: promoted
[1]; [5]
  effect on XET activity in radiochemical assays (as summarised in the discussion): little effect

## Cc1cc2nc3cc(C)c(N)cc3[n+](-c3ccccc3)c2cc1N [Safranine O]
[2]; [6]
  effect on XET activity in dot-blot (inhibition / promotion): stimulatory

## C=C[C@@]1(C)CC(=O)[C@]2(O)[C@@]3(C)[C@@H](O)CCC(C)(C)[C@@H]3[C@H](O)[C@H](OC(C)=O)[C@@]2(C)O1 [forskolin]
[2]; [6]
  effect on XET activity in dot-blot (inhibition / promotion): stimulatory

## C[C@@H]1C/C=C/C=C/C=C/C=C/[C@H](O[C@@H]2O[C@H](C)[C@@H](O)[C@H](N)[C@@H]2O)C[C@@H]2O[C@](O)(C[C@@H](O)C[C@H]3O[C@@H]3/C=C/C(=O)O1)C[C@H](O)[C@H]2C(=O)O [natamycin]
[2]; [6]
  effect on XET activity in dot-blot (inhibition / promotion): stimulatory

## O=C(O)c1cc[c]([Hg][Cl])cc1 [4-chloromercuribenzoic acid]
[2]; [6]
  effect on XET activity in dot-blot (inhibition / promotion): strong inhibitor
[1]
  effect on XET activity, radiochemical re-screen of 206 compounds (mostly LATCA): inhibition
[1]; by ∼50 μM, little further inhibition up to ∼400 μM
  XET activity inhibited: 50–60%

## O=C1c2cccc3c(Br)ccc(c23)C(=O)N1O [6-bromo-2-hydroxy-1H-benzo[de]isoquinoline-1,3(2H)-dione]
[1]
  effect on XET activity, radiochemical re-screen of 206 compounds (mostly LATCA): inhibition

## O=C(CCc1ccc(O)cc1)c1c(O)cc(O)cc1O [phloretin]
[2]; [6]
  effect on XET activity in dot-blot (inhibition / promotion): promoted
[2]
  coagulation ('type c' effect) in dot-blot: coagulation
[1]
  effect on XET activity, first radiochemical re-screen of EDI hits: inhibitory
[1]; [5]
  effect on XET activity in radiochemical assays (as summarised in the discussion): inhibited

## Cc1cc2nc3c(=O)[nH]c(=O)nc-3n(C[C@H](O)[C@H](O)[C@H](O)COP(=O)(O)OP(=O)(O)OC[C@H]3O[C@@H](n4cnc5c(N)ncnc54)[C@H](O)[C@@H]3O)c2cc1C [flavin adenine dinucleotide]
[2]; [6]
  effect on XET activity in dot-blot (inhibition / promotion): did not show inhibitory effects
[1]
  effect on XET activity, radiochemical re-screen of 206 compounds (mostly LATCA): inhibition

## Cc1cccc(OCC(=O)N/N=C/c2ccc(Br)o2)c1 [N′-(1E)-(5-bromofuran-2-yl)methylidene-2-(3-methylphenoxy)acetohydrazide]
[1]
  inhibition of XET activity: 24%

## COc1ccc([C@@H]2CC(=O)c3c(O)cc(O)cc3O2)cc1O [hesperetin]
[2]; [6]
  effect on XET activity in dot-blot (inhibition / promotion): slightly enhanced

## O=c1c2ccccc2[se]n1-c1ccccc1 [ebselen]
[2]; [6]
  effect on XET activity in dot-blot (inhibition / promotion): XET inhibitor
[3]
  concentration inhibiting growth (PCV) without membrane impairment: 70 µM
[1]
  effect on XET activity, radiochemical re-screen of 206 compounds (mostly LATCA): inhibition

## CC(C)C(C)C(O)C(O)C(C)C1CCC2C3COC(=O)C4CC(O)C(O)CC4(C)C3CCC12C (stereo not drawn) [epibrassinolide]
[1]
  inhibition of XET activity: 22%

## C[CH2][Hg][S]c1ccccc1C(=O)[O-].[Na+] [thiomersal]
[2]; [6]
  effect on XET activity in dot-blot (inhibition / promotion): did not show inhibitory effects
[1]
  effect on XET activity, radiochemical re-screen of 206 compounds (mostly LATCA): inhibition

## O=C(O)c1ccccc1C(=O)O [phthalic acid]
[2]; [6]
  effect on XET activity in dot-blot (inhibition / promotion): promotion

## O=c1cc(-c2ccc(O)c(O)c2)oc2cc(O)cc(O)c12 [luteolin]
[2]; [6]
  effect on XET activity in dot-blot (inhibition / promotion): promoted
[2]
  coagulation ('type c' effect) in dot-blot: coagulation
[1]; [5]
  effect on XET activity in radiochemical assays (as summarised in the discussion): inhibited

## Cc1ccc(SCc2ccc(C(=O)NCc3ccccn3)cc2)cc1 [4-{[(4-methylphenyl)thio]methyl}-N-(2-pyridinylmethyl)-benzamide]
[1]
  effect on XET activity, radiochemical re-screen of 206 compounds (mostly LATCA): inhibition

## O=C(CCc1ccc(O)cc1)c1c(O)cc(O)cc1O[C@@H]1O[C@H](CO)[C@@H](O)[C@H](O)[C@H]1O [phloridzin]
[2]; [6]
  effect on XET activity in dot-blot (inhibition / promotion): slightly enhanced

## O=[N+]([O-])[O-].[Ag+] [silver nitrate]
[2]
  effect on XET activity in dot-blot (inhibition / promotion): inhibitors

## O=c1cc(-c2ccc(O)cc2)oc2cc(O)cc(O)c12 [apigenin]
[2]; [6]
  effect on XET activity in dot-blot (inhibition / promotion): promoted
[2]
  coagulation ('type c' effect) in dot-blot: coagulation
[1]; [5]
  effect on XET activity in radiochemical assays (as summarised in the discussion): little effect

## tannic acid
[1]
  effect on XET activity, first radiochemical re-screen of EDI hits: inhibitory

## O=C(O)[C@]1(O)C[C@@H](O)[C@@H](O)[C@H](O)C1 [quinic acid]
[2]; [6]
  effect on XET activity in dot-blot (inhibition / promotion): promoted
[1]; [5]
  effect on XET activity in radiochemical assays (as summarised in the discussion): little effect

## OCc1c[nH]c2ccccc12 [indole 3-carbinol]
[2]; [6]
  effect on XET activity in dot-blot (inhibition / promotion): stimulatory

## O=C(O[C@@H]1Cc2c(O)cc(O)cc2O[C@@H]1c1ccc(O)c(O)c1)c1cc(O)c(O)c(O)c1 [epicatechin gallate]
[1]
  effect on XET activity, first radiochemical re-screen of EDI hits: inhibitory
[1]; read-out: IC50 (concentration required for 50% inhibition of XET activity), radiochemical assay, soluble xyloglucan, laboratory light, 2 h, 20 °C
  IC50: ~400 µM

## Cc1cc(C2(c3cc(C)c(O)c(Br)c3)OS(=O)(=O)c3ccccc32)cc(Br)c1O [bromocresol purple]
[1]
  effect on XET activity, radiochemical re-screen of 206 compounds (mostly LATCA): inhibition

## CC(=O)[O][Hg][c]1ccccc1 [phenylmercuric acetate]
[2]; [6]
  effect on XET activity in dot-blot (inhibition / promotion): inhibitors
[1]
  effect on XET activity, radiochemical re-screen of 206 compounds (mostly LATCA): inhibition

## COc1cccc2c1C(=O)c1c(O)c3c(c(O)c1C2=O)C[C@@](O)(C(C)=O)C[C@@H]3O[C@H]1C[C@H](N)[C@H](O)[C@H](C)O1 [daunorubicin]
[2]; [6]
  effect on XET activity in dot-blot (inhibition / promotion): apparent promoters; also recorded: promoted
[1]; [5]
  effect on XET activity in radiochemical assays (as summarised in the discussion): moderately inhibitory; also recorded: inhibited

## O=C1OC(c2ccc(O)cc2)(c2ccc(O)cc2)c2ccccc21 [phenolphthalein]
[2]
  coagulation ('type c' effect) in dot-blot: coagulation
[1]
  effect on XET activity, first radiochemical re-screen of EDI hits: inhibitory

## COc1cc(O)c2c(c1N)C(=O)c1ccccc1C2=O [1-amino-4-hydroxy-2-methoxyanthracene-9,10-dione]
[2]; [6]
  effect on XET activity in dot-blot (inhibition / promotion): apparent promoters
[1]
  inhibition of XET activity: 29%
[1]; [5]
  effect on XET activity in radiochemical assays (as summarised in the discussion): moderately inhibitory

## COc1c(C)c2c(c(O)c1C/C=C(\C)CCC(=O)O)C(=O)OC2 [mycophenolic acid]
[4]
  membrane function: impaired
[3]
  concentration inhibiting growth (PCV) without membrane impairment: 60 µM

## O=c1cc(-c2ccccc2)oc2cc(O)c(O)c(O)c12 [baicalein]
[2]; [6]
  effect on XET activity in dot-blot (inhibition / promotion): promoted
[2]
  coagulation ('type c' effect) in dot-blot: coagulation
[1]; [5]
  effect on XET activity in radiochemical assays (as summarised in the discussion): inhibited
